# Measurements taken from patent US7390925B2, “Oxime-containing acyl guanidines as beta-secretase inhibitors” (Bristol-Myers Squibb Company, priority 2006, dated 2008).
# Molecular target: T1, BACE1 enzyme (Homo sapiens, UniProt P56817)
# T1 construct: derived from HEK293 cells (Simmons, N. L. (1990)); endogenous in cells; washed 48,000 x g pellet of cell homogenate
# Test: Radioligand displacement assay with a radiolabeled BACE inhibitor on HEK293-9B.A1 cell homogenate
# Format: binding
# Details: displacement of 1 nM radioligand, HEK293-9B.A1 homogenate, pH 5.0, 1.5 hr at 25° C.; read-out: Activity Rating (activity based on IC50 values)
# Excerpt: There are a number of methods by which inhibitors of the BACE enzyme can be identified experimentally. The enzyme can be obtained from membrane samples from natural tissues or cultured cells or can be expressed recombinantly in a host cell by well known methods of molecular biology. The whole enzyme or a portion thereof can be expressed, for example, in bacterial, insect or mammalian cells to obtain a catalytically active enzyme species. The enzymatic activity and/or ligand binding capability of the enzyme can be assessed within these membrane samples, or the enzyme can be purified to varying extents. As an illustrative example, the nucleic acid sequence encoding the pro and catalytic domains of human BACE can be appended on the 5′ end with an untranslated and signal sequence from the gene for acetylcholinesterase, and on the 3′ end with a sequence encoding a poly-histidine tag. This cDNA can then be expressed in Drosophila melanogaster S2 cells in which the signal and pro sequences of the transcribed/translated protein are removed by cellular proteases and the catalytic domain, appended by a C-terminal poly-histidine tag, is secreted out into the cellular medium. The enzyme can then be purified from the culture medium by nickel affinity chromatography by methods well known to those trained in the art [Mallender, W. et al., (2001) “Characterization of recombinant, soluble beta-secretase from an insect cell expression system.” Mol. Pharmacol. 59: 619-626]. Similar strategies for expressing and purifying various forms of BACE in bacterial, mammalian and other cell types would be known to one skilled in the art. A preferred method for determining the potency of a test compound in binding to the BACE enzyme is by monitoring the displacement of a suitable radioligand.
# Radioligand displacement assays with a radiolabeled BACE inhibitor (WO 2004 013098, compound 3, where the methoxy group is substituted for C(^3H)3) were carried out using standard methods (Keen, M. (1999) in Receptor Binding Techniques (Walker, J. M. ed) p. 106 Humana Press, Totowa, N. J.). The HEK293-9B.A1 cell line, which overexpresses the BACE1 enzyme, was derived from HEK293 cells (Simmons, N. L. (1990) A cultured human renal epithelioid cell line responsive to vasoactive intestinal peptide. Exp. Physiol. 75:309-19.) by RAGE™ (Harrington, J. J. et al. (2001) Creation of genome-wide protein expression libraries using random activation of gene expression. Nat. Biotechnol. 19:440-5.; U.S. Pat. Nos. 6,410,266 and 6,361,972). T225 flask cultures of HEK293-9B.A1 were grown to 80% confluency in DMEM supplemented with 2 mM L-glutamine, 10 μg/ml penicillin, 10 μg/ml streptomycin, 3 μg/ml puromycin, 100 nM methotrexate, and 10% fetal bovine serum (Invitrogen, Carlsbad, Calif.), harvested, and resuspended at 2×10^8 cells per 10 ml of lysis buffer consisting of 50 mM HEPES pH 7.0 containing a protease inhibitor cocktail of AEBSF 104 μM, aprotinin 80 nM, leupeptin 2 μM, bestatin 4 μM, pepstatin A 1.5 μM, and E-64 1.4 μM (0.1% of protease inhibitor cocktail P8340, Sigma-Aldrich, St. Louis, Mo.) at 4° C. The resuspended cells were homogenized using a Polytron (Brinkman, Westbury, N.Y.) at setting 6 for 10 sec., then centrifuged at 48,000×g for 10 min. The resulting pellet was washed by repeating the resuspension, homogenization and centrifugation steps. The final pellet was resuspended in buffer at 4° C. to yield a total protein concentration of 5 mg/ml, then aliquots were frozen in liquid nitrogen for further storage at −70° C. Immediately before carrying out a binding assay, an aliquot of cell homogenate was thawed and diluted to a concentration of 100 μg/ml in assay buffer consisting of 50 mM HEPES pH 5.0 and 0.1% CHAPSO. […]
# T1 sequence (P56817 46-501): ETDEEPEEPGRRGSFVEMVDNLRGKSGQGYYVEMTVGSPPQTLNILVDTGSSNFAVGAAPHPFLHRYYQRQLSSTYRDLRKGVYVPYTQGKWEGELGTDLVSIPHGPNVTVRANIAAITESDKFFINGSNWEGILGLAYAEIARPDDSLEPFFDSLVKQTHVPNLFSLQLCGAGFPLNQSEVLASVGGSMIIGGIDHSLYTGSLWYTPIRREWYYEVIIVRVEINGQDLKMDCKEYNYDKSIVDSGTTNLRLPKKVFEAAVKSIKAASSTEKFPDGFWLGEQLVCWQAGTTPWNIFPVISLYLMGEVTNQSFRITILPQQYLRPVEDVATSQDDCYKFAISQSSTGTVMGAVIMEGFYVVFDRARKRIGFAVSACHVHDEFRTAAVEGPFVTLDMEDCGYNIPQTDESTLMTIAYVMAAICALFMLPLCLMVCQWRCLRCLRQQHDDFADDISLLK
row,Molecule,IC50 [nM]
1,"CON=C(CC(=O)/N=C(\N)Cc1cc(Cl)c(NC(C)=O)c(Cl)c1)c1ccc(OC)cc1 [Example 1, N-(2-(4-Acetamido-3,5-dichlorophenyl)-1-aminoethylidene)-3-(methoxyimino)-3-(4-methoxyphenyl)propanamide]",< 100
2,"COc1ccc(C(CC(=O)N=C(N)NCc2cc(Cl)c(NC(C)=O)c(Cl)c2)=NOCC(C)C)cc1 [Example 18, N-((4-acetamido-3,5-dichlorobenzylamino)(amino)-methylene)-3-(isobutoxyimino)-3-(4-methoxyphenyl)propanamide]",100 to 1000
3,"COc1ccc(C(CC(=O)/N=C(\N)NCc2cc(Cl)c(N)c(Cl)c2)=NOCC(C)C)cc1 [Example 19, N-((4-amino-3,5-dichlorobenzylamino)(amino)methylene)-3-(isobutoxyimino)-3-(4-methoxyphenyl)propanamide]",> 1000
4,"CON=C(CC(=O)/N=C(\N)NCc1cc(Cl)c(N)c(Cl)c1)c1c[nH]c2ccccc12 [Example 20, N-((4-amino-3,5-dichlorobenzylamino)(amino)methylene)-3-(1H-indol-3-yl)-3-(methoxyimino)propanamide]",100 to 1000
5,"CON=C(CC(=O)/N=C(\N)NCc1cc(Cl)c(NC(C)=O)c(Cl)c1)c1c[nH]c2ccccc12 [Example 21, N-((4-acetamido-3,5-dichlorobenzylamino)(amino)methylene)-3-(1H-indol-3-yl)-3-(methoxyimino)propanamide]",< 100
6,"CON=C(CC(=O)/N=C(\N)NCc1cc(C)c(C(=O)CN(C)C)c(Cl)c1)c1c[nH]c2ccccc12 [Example 22, N-((3-chloro-4-(2-(dimethylamino)acetyl)-5-methylbenzylamino)(amino)-methylene)-3-(1H-indol-3-yl)-3-(methoxyimino)propanamide]",100 to 1000
7,"N-(1-Amino-2-(3,5-dichlorophenyl)ethylidene)-3-(methoxyimino)-3-(4-methoxyphenyl)propanamide [Example 3]",> 1000
8,N-(1-Amino-2-(3-chloro-4-(2-(dimethylamino)acetamido)-5-methylphenyl)-ethylidene)-3-(methoxyimino)-3-(4-methoxyphenyl)propanamide [Example 4],100 to 1000
9,"N-(1-Amino-2-(4-amino-3,5-dichlorophenyl)ethylidene)-3-(ethoxyimino)-3-(4-methoxyphenyl)propanamide [Example 6]",100 to 1000
10,"N-(1-Amino-2-(4-amino-3,5-dichlorophenyl)ethylidene)-3-(methoxyimino)-3-(2-methoxyphenyl)propanamide [Example 13]",> 1000
11,"N-(1-Amino-2-(4-amino-3,5-dichlorophenyl)ethylidene)-3-(methoxyimino)-3-(4-methoxyphenyl)propanamide [Example 2]",100 to 1000
12,"N-(1-Amino-2-(4-amino-3,5-dichlorophenyl)ethylidene)-3-(methoxyimino)-3-(4-nitrophenyl)propanamide [Example 17]",100 to 1000
13,"N-(1-Amino-2-(4-amino-3,5-dichlorophenyl)ethylidene)-3-(methoxyimino)-3-phenylpropanamide [Example 9]",100 to 1000
14,"N-(2-(4-Acetamido-3,5-dichlorophenyl)-1-aminoethylidene)-3-(4-fluorophenyl)-3-(methoxyimino)propanamide [Example 15]",< 100
15,"N-(2-(4-Acetamido-3,5-dichlorophenyl)-1-aminoethylidene)-3-(4-nitrophenyl)-3-(methoxyimino)propanamide [Example 16]",< 100
16,"N-(2-(4-Acetamido-3,5-dichlorophenyl)-1-aminoethylidene)-3-(ethoxyimino)-3-(4-methoxyphenyl)propanamide [Example 5]",< 100
17,"N-(2-(4-Acetamido-3,5-dichlorophenyl)-1-aminoethylidene)-3-(methoxyimino)-3-(2-methoxyphenyl)propanamide [Example 12]",100 to 1000
18,"N-(2-(4-Acetamido-3,5-dichlorophenyl)-1-aminoethylidene)-3-(methoxyimino)-3-(3-methoxyphenyl)propanamide [Example 11]",100 to 1000
